Laboratory results as given in the supplement of paper PMC10307832.

Experiments:
Assay in all cases: relative viability (nuclei count vs DMSO), 5 days (fraction); higher = more cells survive
[1] = compound: C#Cc1cccc(Nc2ncnc3cc(OC)c(OCCCCCCC(=O)NO)cc23)c1 [CUDC-101] + COc1cc2c(Oc3ccc(NC(=O)C4(C(=O)Nc5ccc(F)cc5)CC4)cc3F)ccnc2cc1OCCCN1CCOCC1 [Foretinib] (partner 0.25 µM)
Procedure, shortened: (§1)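 Cells from lung cancer lines were seeded into 1536-well plates and, one day later, dosed by pin tool. Treatments were either a single drug or a fixed dose of an anchor drug with five library-drug doses (not always all listed) in √10 steps. After 5 days, nuclei were stained in a one-step fixation (final 0.05% Triton X-100, 1% formaldehyde, 1 ug/ml Hoechst) and counted on 4× images, and relative viability is the treated-to-vehicle nuclei ratio, as the median of duplicate plates.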

[2] = compound: C#Cc1cccc(Nc2ncnc3cc(OC)c(OCCCCCCC(=O)NO)cc23)c1 [CUDC-101] + COc1cccc2cc(-c3nc([C@H]4CC[C@H](C(=O)O)CC4)n4ncnc(N)c34)[nH]c12 [OSI-027] (partner 0.5 µM)
Procedure, shortened: as §1

[3] = compound: C#Cc1cccc(Nc2ncnc3cc(OC)c(OCCCCCCC(=O)NO)cc23)c1 [CUDC-101] + Cc1cc(Nc2cc(N3CCN(C)CC3)nc(Sc3ccc(NC(=O)C4CC4)cc3)n2)n[nH]1 [Tozasertib] (partner 0.1 µM)
Procedure, shortened: as §1

[4] = compound: COc1cc2/c(=N/c3ccc(Br)cc3F)nc[nH]c2cc1OCC1CCN(C)CC1 [Vandetanib] + O=C(c1cc(Cc2n[nH]c(=O)c3ccccc23)ccc1F)N1CCN(C(=O)C2CC2)CC1 [Olaparib] (partner 8 µM)
Procedure, shortened: as §1

PC-3 [JPC-3]
relative viability ([1]; first compound 0.01 µM): 1.07 | relative viability ([1]; first compound 0.03162 µM): 1 | relative viability ([1]; first compound 0.1 µM): 0.882 | relative viability ([1]; first compound 0.3162 µM): 0.539 | relative viability ([1]; first compound 1 µM): 0.294 | relative viability ([2]; first compound 0.01 µM): 0.758 | relative viability ([2]; first compound 0.03162 µM): 0.786 | relative viability ([2]; first compound 0.1 µM): 0.514 | relative viability ([2]; first compound 0.3162 µM): 0.547 | relative viability ([2]; first compound 1 µM): 0.407 | relative viability ([3]; first compound 0.01 µM): 0.89 | relative viability ([3]; first compound 0.03162 µM): 0.847 | relative viability ([3]; first compound 0.1 µM): 0.834 | relative viability ([3]; first compound 0.3162 µM): 0.61 | relative viability ([3]; first compound 1 µM): 0.314 | relative viability ([4]; first compound 0.02 µM): 1.06 | relative viability ([4]; first compound 0.06325 µM): 0.961 | relative viability ([4]; first compound 0.2 µM): 1.06 | relative viability ([4]; first compound 0.6325 µM): 0.747 | relative viability ([4]; first compound 2 µM): 0.557

NCI-H1355
relative viability ([1]; first compound 0.01 µM): 1.08 | relative viability ([1]; first compound 0.03162 µM): 1.01 | relative viability ([1]; first compound 0.1 µM): 1.03 | relative viability ([1]; first compound 0.3162 µM): 1.07 | relative viability ([1]; first compound 1 µM): 0.821 | relative viability ([2]; first compound 0.01 µM): 0.393 | relative viability ([2]; first compound 0.03162 µM): 0.385 | relative viability ([2]; first compound 0.1 µM): 0.411 | relative viability ([2]; first compound 0.3162 µM): 0.416 | relative viability ([2]; first compound 1 µM): 0.309 | relative viability ([3]; first compound 0.01 µM): 0.518 | relative viability ([3]; first compound 0.03162 µM): 0.539 | relative viability ([3]; first compound 0.1 µM): 0.5 | relative viability ([3]; first compound 0.3162 µM): 0.544 | relative viability ([3]; first compound 1 µM): 0.384 | relative viability ([4]; first compound 0.02 µM): 0.754 | relative viability ([4]; first compound 0.06325 µM): 0.665 | relative viability ([4]; first compound 0.2 µM): 0.734 | relative viability ([4]; first compound 0.6325 µM): 0.825 | relative viability ([4]; first compound 2 µM): 0.684

HCC-827
relative viability ([1]; first compound 0.01 µM): 1 | relative viability ([1]; first compound 0.03162 µM): 0.436 | relative viability ([1]; first compound 0.1 µM): 0.203 | relative viability ([1]; first compound 0.3162 µM): 0.153 | relative viability ([1]; first compound 1 µM): 0.167 | relative viability ([2]; first compound 0.01 µM): 0.813 | relative viability ([2]; first compound 0.03162 µM): 0.46 | relative viability ([2]; first compound 0.1 µM): 0.177 | relative viability ([2]; first compound 0.3162 µM): 0.144 | relative viability ([2]; first compound 1 µM): 0.136 | relative viability ([3]; first compound 0.01 µM): 0.381 | relative viability ([3]; first compound 0.03162 µM): 0.236 | relative viability ([3]; first compound 0.1 µM): 0.143 | relative viability ([3]; first compound 0.3162 µM): 0.111 | relative viability ([3]; first compound 1 µM): 0.101 | relative viability ([4]; first compound 0.02 µM): 0.629 | relative viability ([4]; first compound 0.06325 µM): 0.653 | relative viability ([4]; first compound 0.2 µM): 0.627 | relative viability ([4]; first compound 0.6325 µM): 0.309 | relative viability ([4]; first compound 2 µM): 0.152

NCI-H1944
relative viability ([1]; first compound 0.01 µM): 0.931 | relative viability ([1]; first compound 0.03162 µM): 0.691 | relative viability ([1]; first compound 0.1 µM): 0.861 | relative viability ([1]; first compound 0.3162 µM): 0.612 | relative viability ([1]; first compound 1 µM): 0.397 | relative viability ([2]; first compound 0.01 µM): 0.436 | relative viability ([2]; first compound 0.03162 µM): 0.388 | relative viability ([2]; first compound 0.1 µM): 0.357 | relative viability ([2]; first compound 0.3162 µM): 0.36 | relative viability ([2]; first compound 1 µM): 0.253 | relative viability ([3]; first compound 0.01 µM): 0.268 | relative viability ([3]; first compound 0.03162 µM): 0.213 | relative viability ([3]; first compound 0.1 µM): 0.275 | relative viability ([3]; first compound 0.3162 µM): 0.236 | relative viability ([3]; first compound 1 µM): 0.17 | relative viability ([4]; first compound 0.02 µM): 0.414 | relative viability ([4]; first compound 0.06325 µM): 0.396 | relative viability ([4]; first compound 0.2 µM): 0.306 | relative viability ([4]; first compound 0.6325 µM): 0.377 | relative viability ([4]; first compound 2 µM): 0.397
